Measured values from patent US8906644B2, “Method for culture of hepatocytes” (The University of Tokyo, priority 2009, dated 2014).

Biological target: T1, drug transporter (MRP2) (Rattus norvegicus, UniProt Q63120)
T1 construct: endogenous in cells; host or cells: primary hepatocytes in collagen gel sandwich culture on a PDMS membrane device, with a polystyrene device for comparison
Test: Measurement of MRP2 activity with CDCF (Bile Excretion Index) in collagen gel sandwiched hepatocytes
Assay type: in vitro ADME
Settings: Day 4 of culture, 5 μM CDCF, 5 minutes
Description: Using the collagen gel sandwiched hepatocytes that were cultured on the PDMS membrane culturing device prepared in Example 1 and forming bile canaliculi, the activity of a drug transporter (MRP2) was measured by incorporation of 5-(and-6)-carboxy-2′,7′-dichlorofluorescein (CDCF) as follows according to a Non-patent Document (Liu X et al., Am J Physiol, 1999, vol. 277, pp. 12-21). Further, hepatocytes cultured in a conventional polystyrene culturing device were used for comparison.
Ca/Mg(+) HBSS was prepared before use by mixing 50 mL of HBSS (Invitrogen, 14175-079), 500 μL of 14 g/L CaCl2 and 500 μL of 10 g/L MgCl2/6H2O together. In terms of the CDCF solution, a 5 μM CDCF solution was prepared before use by using 1 mM CDCF (in dimethyl sulfoxide: Molecular Probes, C-369) and Ca/Mg(+) HBSS, and the prepared solution was incubated in a water bath at 37° C. […]
Two hepatocyte cultures were prepared 4 days after the beginning of the culture (3 days after the deposition of the gel). […] A 100-μL aliquot was collected from each supernatant and subjected to measurement with a fluorescence microplate reader with excitation at 492 nm and fluorescence at 530 nm to quantify the amount of CDCF. […] The Bile Excretion Index (BEI) was calculated according to the following equation based on the fluorescent brightness per protein amount (Accumulation).

T1 sequence (Q63120 whole entry): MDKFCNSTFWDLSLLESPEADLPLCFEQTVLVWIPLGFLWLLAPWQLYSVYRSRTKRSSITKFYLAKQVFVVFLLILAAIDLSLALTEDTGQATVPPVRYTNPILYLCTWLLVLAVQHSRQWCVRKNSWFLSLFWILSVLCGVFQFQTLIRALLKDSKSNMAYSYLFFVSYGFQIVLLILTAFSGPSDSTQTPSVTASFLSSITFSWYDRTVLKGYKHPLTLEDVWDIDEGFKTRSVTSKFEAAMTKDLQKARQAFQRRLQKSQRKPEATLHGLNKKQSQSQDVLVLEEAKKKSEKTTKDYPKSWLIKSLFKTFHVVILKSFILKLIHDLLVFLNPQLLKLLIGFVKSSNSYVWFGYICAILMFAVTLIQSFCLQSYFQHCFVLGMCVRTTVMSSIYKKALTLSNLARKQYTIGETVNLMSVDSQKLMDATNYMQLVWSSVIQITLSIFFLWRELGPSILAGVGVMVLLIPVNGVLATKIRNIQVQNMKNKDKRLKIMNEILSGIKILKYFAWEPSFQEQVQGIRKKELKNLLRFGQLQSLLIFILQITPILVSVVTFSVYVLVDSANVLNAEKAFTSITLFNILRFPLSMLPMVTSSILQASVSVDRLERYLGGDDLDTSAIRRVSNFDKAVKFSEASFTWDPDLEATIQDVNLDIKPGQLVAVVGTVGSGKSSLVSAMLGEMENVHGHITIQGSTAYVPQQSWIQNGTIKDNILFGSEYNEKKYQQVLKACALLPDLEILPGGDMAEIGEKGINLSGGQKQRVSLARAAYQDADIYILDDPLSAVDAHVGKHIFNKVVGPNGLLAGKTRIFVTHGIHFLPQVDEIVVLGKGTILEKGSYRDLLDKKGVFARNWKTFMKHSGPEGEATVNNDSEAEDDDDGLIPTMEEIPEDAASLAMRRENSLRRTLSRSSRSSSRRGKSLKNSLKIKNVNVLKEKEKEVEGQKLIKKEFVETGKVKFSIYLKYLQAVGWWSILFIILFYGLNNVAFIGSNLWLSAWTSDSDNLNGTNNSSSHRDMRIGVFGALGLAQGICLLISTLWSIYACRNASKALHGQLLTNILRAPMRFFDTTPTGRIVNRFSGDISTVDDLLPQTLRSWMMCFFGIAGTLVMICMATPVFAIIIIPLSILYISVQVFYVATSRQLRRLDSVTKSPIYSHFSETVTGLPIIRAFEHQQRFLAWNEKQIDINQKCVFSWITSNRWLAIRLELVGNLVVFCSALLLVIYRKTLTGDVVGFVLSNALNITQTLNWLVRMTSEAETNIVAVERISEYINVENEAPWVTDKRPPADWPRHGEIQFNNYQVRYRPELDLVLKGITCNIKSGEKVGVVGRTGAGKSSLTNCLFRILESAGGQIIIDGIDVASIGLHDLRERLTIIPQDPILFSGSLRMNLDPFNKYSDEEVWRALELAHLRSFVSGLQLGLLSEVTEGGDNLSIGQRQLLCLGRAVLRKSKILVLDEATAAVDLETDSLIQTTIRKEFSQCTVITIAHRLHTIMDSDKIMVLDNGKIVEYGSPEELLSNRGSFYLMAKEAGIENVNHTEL

Substance: 5-(and-6)-carboxy-2′,7′-dichlorofluorescein [CDCF]
- Bile Excretion Index (BEI) (collagen gel sandwich on conventional polystyrene (PS) substrate): about 20%
- Bile Excretion Index (BEI) (collagen gel sandwich on gas-permeable PDMS membrane culturing device): about 40%
